Values of other authors in patent US20050239864A1, “Novel tumor-selective chemotherapeutic agents” (priority 2004, published 2005).

Legend:
[1] = tested on: mouse renal RENCA, human breast cancers MDA-MB 435 and MCF-7; conditions: three animal tumor models; cited from earlier work
[2] = tested on: MDA-MB 435 human breast cancer; conditions: cited from earlier work
endogenous albumin = target: T1, endogenous albumin (Homo sapiens, UniProt P02768); conditions: human blood plasma; cited from earlier work
T1 construct: To determine the coupling rate and selectivity of Dox-MH for endogenous albumin, Dox-MH was incubated with human blood plasma; from tissue; host or cells: human blood plasma
T1 sequence (P02768 25-609): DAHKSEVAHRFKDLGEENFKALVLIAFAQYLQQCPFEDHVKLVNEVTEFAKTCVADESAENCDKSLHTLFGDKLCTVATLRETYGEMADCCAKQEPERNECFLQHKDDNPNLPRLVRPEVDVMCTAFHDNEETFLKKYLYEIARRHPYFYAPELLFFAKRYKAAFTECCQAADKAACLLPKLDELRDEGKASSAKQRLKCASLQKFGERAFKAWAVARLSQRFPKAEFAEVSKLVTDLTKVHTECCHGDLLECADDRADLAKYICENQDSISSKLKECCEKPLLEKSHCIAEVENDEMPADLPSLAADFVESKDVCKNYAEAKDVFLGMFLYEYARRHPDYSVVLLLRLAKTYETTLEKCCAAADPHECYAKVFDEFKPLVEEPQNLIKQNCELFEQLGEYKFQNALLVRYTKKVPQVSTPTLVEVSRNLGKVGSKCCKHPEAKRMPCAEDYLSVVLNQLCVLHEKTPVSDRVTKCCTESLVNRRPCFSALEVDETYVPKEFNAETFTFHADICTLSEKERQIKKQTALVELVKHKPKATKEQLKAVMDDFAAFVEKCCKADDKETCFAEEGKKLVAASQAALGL

HSA = HSA (Homo sapiens, UniProt P02768); conditions: exogenously added HSA; cited from earlier work
Sequence of HSA (P02768 25-609): as above

COc1cccc2c1C(=O)c1c(O)c3c(c(O)c1C2=O)C[C@@](O)(/C(CO)=N/NC(=O)CCCCCN1C(=O)C=CC1=O)C[C@@H]3O[C@H]1C[C@H](N)[C@H](O)[C@H](C)O1 [Dox-MH]
antitumor efficacy and toxicity versus free doxorubicin [1]: distinctly superior to free doxorubicin | antitumor response ([2]; Dox-MH at optimal dose (3×23 mg/kg)): complete remissions were achieved | change in body weight ([2]; after 24 days of drug administration): did not produce an overall change in body weight | time after which reaction with HSA was almost complete (endogenous albumin): 2 min | time by which all had reacted (endogenous albumin): ≤ 90 min | time by which all had reacted with HSA (HSA): ≤ 90 min | time by which majority had reacted with HSA (HSA): ≤ 5 min
